Results as given in patent US10544156B2, “Hemi-synthetic trilobine analogs for use as a drug” (PIERRE FABRE MEDICAMENT, priority 2015, dated 2020).
Where two headings read alike, the source gives them in different places.

What was measured:
[1] = system: HCT116 (colorectal cancer); assay: Anti-proliferative activity (ATPLite); format: cell-based; conditions: Homo sapiens, HCT-116; daily treatment, cell viability by ATPLite; read-out: Antiproliferative activity: IC50 (μM) HCT116 (colorectal cancer)
Description: (§1) To measure the anti-proliferative properties of tested molecules, 2×10^4 cells are seeded at day 0 in a 96 wells plate. The compounds to be tested, stored at −20° C. as 10^−2 M stock solution in 100% DMSO, are freshly diluted on day 1 in the cell medium, before adding a dose range of 3.2 nM to 10 μM to the cells. Cells are treated everyday and cell viability assessed after 3 days or 7 days of treatment. The cell viability is assessed using the ATPLite kit from Perkin (ATPlite 1 Step Luminescence Assay System, ref 3016739), following the provider instructions. The raw data are analyzed with GraphPad Prism software (v4.03) to generate IC50 values corresponding to the compound concentrations giving 50% reduction in cell viability. The values presented are the mean results of at least two independent experiments. The standard errors are indicated.

KG-1 (leukemia) = assay: Anti-proliferative activity (ATPLite); format: cell-based; conditions: Homo sapiens; daily treatment, cell viability by ATPLite; read-out: Antiproliferative activity: IC50 (μM) KG-1 (leukemia)
Description: as §1

WM266-4 (melanoma) = assay: Anti-proliferative activity (ATPLite); format: cell-based; conditions: Homo sapiens, WM 266-4; two treatments instead of three; cell viability by ATPLite; read-out: Antiproliferative activity: IC50 (μM) WM266-4 (melanoma)
Description: as §1

[2] = molecular target: T1, His-DNMT1 (182 kDa, human) (Homo sapiens, UniProt P26358); assay: hDNMT1 assay ([methyl-3H] SAM Flashplate); format: biochemical; conditions: for inhibition at 10 µM: read-out: hDNMT 1 inhibition, Inhibition (%) 10 μM; for inhibition at 32 µM: read-out: hDNMT 1 inhibition, Inhibition (%) 32 μM
T1 construct: His; made in house
Description: His-DNMT1 (182 kDa, human) was cloned, expressed and purified as described (Halby et al. Chem Bio Chem 2012, 13, 157-165). The reaction was performed in a 10 μL total reaction volume in low volume NBS™ 384-well microplates (Corning), containing the tested compound (up to 1% DMSO), 1 μM of a SAM/[methyl-^3H] SAM (3TBq/mmol, PerkinElmer) mix in a ratio of 3-to-1 (isotopic dilution 1*:3), 0.3 μM of biotinylated hemimethylated DNA duplex (5′-GATmCGCmCGATGmCGmCGAATmCGmCGATmCGATGmCGAT-3′ and BIOT-5′-[…]-3′), and 90 nM of DNMT1 in methylation buffer (20 mM HEPES pH 7.2, 1 mM EDTA, 50 mM KCl, 25 μg/mL BSA). The reaction was incubated at 37° C. for 2 hours. 8 μL are then transferred into a streptavidin 96-well scintillant coated Flashplate™ (PerkinElmer) containing 190 μL of 20 μM SAH in 50 mM Tris-HCl pH 7.4. The Flashplate™ was agitated at room temperature for 1 hour and read in 200 μL of 50 mM Tris-HCl pH 7.4 on TopCount NXT (PerkinElmer). The percentage of inhibition is reported. The formula used to calculate the percentage of inhibition is [(X−Y)/X]×100, where X is the signal determined in the absence of the inhibitor and Y is the signal obtained in the presence of the inhibitor.

[3] = molecular target: T2, human C-terminal DNMT3A (623-908a.a.) (Homo sapiens, UniProt Q9Y6K1); assay: hDNMT3A assay (restriction-based fluorescence assay); format: biochemical; conditions: for inhibition at 10 µM: read-out: hDNMT 3A inhibition, Inhibition (%) 10 μM; for inhibition at 32 µM: read-out: hDNMT 3A inhibition, Inhibition (%) 32 μM
T2 construct: The human C-terminal DNMT3A (623-908a.a.); made in house
Text: hDNMT3A enzyme inhibition was adapted from the restriction-based fluorescence assay protocol as described in the literature (Ceccaldi et al. Chem Bio Chem 2011, 12, 1337-1345). Briefly, a 5′-labelled biotin oligonucleotide is hybridized to its complementary strand labelled with 6-carboxyfluorescein at the 3′-end into a 384 well microplate (black Optiplates; Perkin Elmer) pre-coated with avidin. The duplex contains a unique CpG site overlapping with a restriction site of a methylation sensitive restriction enzyme. The human C-terminal DNMT3A (623-908a.a.), produced as described in (Gros et al. Nucl. Acids Res. 2013, 41(19):e185), was added in each well (200 ng/well) and mixed with the chemical compounds at desired concentrations and freshly prepared SAM (20 μM final concentration) to start the reaction in a total volume of 50 μL. After 1 hour incubation at 37° C. each well were washed three times with PBS, Tween-20 0.05%, NaCl (500 mM) and three more times with PBST. Specific fluorescent signals were detected with the methylation-sensitive restriction enzyme HpyCH4IV (NEB) as described and measured on a Perkin Elmer Envision detector. The percentage of inhibition is reported. The formula used to calculate the percentage of inhibition is [(X−Y)/X]×100, where X is the signal determined in the absence of the inhibitor and Y is the signal obtained in the presence of the inhibitor. The concentration at which 50% of efficacy of inhibition is observed (EC50) was determined by analysis of a concentration range of the tested compound in triplicates. The non-linear regression fittings with sigmoidal dose-response (variable slope) were performed with GraphPad Prism 4.03 (GraphPad Software).

[4] = concentration at which 50% of efficacy of inhibition is observed, read-out: EC50 (μM), hDNMT 3A inhibition
[5] = interval line below the EC50 of the same compound, read-out: EC50 (μM), range given

T2 sequence (Q9Y6K1 627-912 limits assumed): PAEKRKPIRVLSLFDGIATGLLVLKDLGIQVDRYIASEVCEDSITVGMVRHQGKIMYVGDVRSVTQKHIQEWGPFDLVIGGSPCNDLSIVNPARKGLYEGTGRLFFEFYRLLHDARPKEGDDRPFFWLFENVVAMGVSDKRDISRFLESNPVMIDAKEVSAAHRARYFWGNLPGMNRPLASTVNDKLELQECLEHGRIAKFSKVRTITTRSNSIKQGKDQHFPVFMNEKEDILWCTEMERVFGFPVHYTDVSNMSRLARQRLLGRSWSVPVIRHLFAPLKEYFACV
T1 sequence (P26358 whole entry): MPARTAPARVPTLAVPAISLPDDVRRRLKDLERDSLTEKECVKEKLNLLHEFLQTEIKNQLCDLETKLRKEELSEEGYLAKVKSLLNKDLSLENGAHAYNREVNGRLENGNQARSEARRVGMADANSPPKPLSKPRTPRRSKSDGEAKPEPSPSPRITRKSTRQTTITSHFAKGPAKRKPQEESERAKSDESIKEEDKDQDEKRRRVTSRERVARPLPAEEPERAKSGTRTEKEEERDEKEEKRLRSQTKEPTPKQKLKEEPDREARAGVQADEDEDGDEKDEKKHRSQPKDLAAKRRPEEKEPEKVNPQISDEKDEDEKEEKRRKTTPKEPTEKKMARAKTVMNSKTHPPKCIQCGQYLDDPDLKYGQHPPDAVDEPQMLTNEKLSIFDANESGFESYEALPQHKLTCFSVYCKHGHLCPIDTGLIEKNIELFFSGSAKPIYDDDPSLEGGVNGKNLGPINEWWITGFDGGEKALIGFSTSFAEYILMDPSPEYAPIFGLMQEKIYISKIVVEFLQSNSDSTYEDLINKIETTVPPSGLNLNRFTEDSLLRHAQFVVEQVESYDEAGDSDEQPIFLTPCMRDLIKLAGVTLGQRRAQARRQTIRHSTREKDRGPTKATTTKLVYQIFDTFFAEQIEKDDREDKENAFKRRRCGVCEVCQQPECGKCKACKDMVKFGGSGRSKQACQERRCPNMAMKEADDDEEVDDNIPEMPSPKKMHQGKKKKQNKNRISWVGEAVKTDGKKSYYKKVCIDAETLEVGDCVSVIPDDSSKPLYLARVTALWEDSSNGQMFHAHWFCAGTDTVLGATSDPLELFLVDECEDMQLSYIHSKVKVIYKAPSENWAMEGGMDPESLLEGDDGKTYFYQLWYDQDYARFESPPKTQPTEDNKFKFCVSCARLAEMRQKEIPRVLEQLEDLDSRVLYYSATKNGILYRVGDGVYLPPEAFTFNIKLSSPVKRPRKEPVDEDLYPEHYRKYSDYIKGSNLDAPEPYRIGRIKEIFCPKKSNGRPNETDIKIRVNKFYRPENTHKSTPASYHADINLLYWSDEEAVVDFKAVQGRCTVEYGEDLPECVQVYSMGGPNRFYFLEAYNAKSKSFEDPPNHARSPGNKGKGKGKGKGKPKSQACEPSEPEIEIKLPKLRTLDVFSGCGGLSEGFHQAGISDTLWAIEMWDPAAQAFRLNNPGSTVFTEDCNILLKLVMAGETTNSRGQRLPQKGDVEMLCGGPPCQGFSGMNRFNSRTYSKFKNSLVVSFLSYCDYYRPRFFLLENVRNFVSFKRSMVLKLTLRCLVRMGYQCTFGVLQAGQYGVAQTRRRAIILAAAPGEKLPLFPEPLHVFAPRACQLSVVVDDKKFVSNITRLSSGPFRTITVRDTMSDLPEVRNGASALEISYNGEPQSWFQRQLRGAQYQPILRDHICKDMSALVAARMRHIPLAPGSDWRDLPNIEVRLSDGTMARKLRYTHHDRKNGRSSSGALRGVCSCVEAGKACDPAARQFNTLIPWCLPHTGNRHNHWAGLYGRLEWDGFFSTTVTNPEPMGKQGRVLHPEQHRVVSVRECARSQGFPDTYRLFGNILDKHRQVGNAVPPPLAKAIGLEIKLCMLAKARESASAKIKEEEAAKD

| Structure (SMILES) | IC50 [1] [µM] | IC50 (KG-1 (leukemia)) [µM] | IC50 (WM266-4 (melanoma)) [µM] | inhibition at 10 µM [2] [%] | inhibition at 32 µM [2] [%] | EC50 [3, 4] [µM] | EC50 [3, 5] [µM] | inhibition at 10 µM [3] [%] | inhibition at 32 µM [3] [%] | EC50 ([2]; read-out: EC50 (μM), hDNMT 1 inhibition) [µM] |
| --- | --- | --- | --- | --- | --- | --- | --- | --- | --- | --- |
| CNC(=O)N1CCc2cc(OC)c3c4c2[C@@H]1Cc1ccc(cc1)Oc1cc(ccc1OC)C[C@H]1c2cc(c(cc2CCN1C)O3)O4 [Product 44] | 1.88 ± 0.03 | 4.2 ± 0.05 | 12 ± 3 | 0 | 15 | 3.96 | 3.04 to 5.17 | 82 | 96 |  |
| COc1ccc2cc1Oc1ccc(cc1)C[C@@H]1NCCc3cc(OC)c4c(c31)Oc1cc3c(cc1O4)CCN(C)[C@H]3C2 [Trilobine (1), trilobine] | 1.19 ± 0.02 | 2.1 ± 0.8 | 3.2 ± 0.8 | 4 |  | 3.8 | 3.21 to 4.49 | 88 | 96 |  |
| CCN(CC)CCCNC(=S)N1CCc2cc3c4cc2[C@@H]1Cc1ccc(OC)c(c1)Oc1ccc(cc1)C[C@H]1c2c(cc(OC)c(c2O4)O3)CCN1C(=S)NCCCN(CC)CC [Product 41] | 0.96 ± 0.02 | 5.3 ± 0.4 | 4.4 ± 1.5 | 60 | 99 | 0.557 to 0.91 |  | 94 | 95 | 11 ± 0.7 |
